We go through 35 molecules from ChEMBL document CHEMBL3098048, “TMEDA-derived biscationic amphiphiles: An economical preparation of potent antibacterial agents” (2014).

Common to all, as to format: functional
For one test, the system named is Pseudomonas aeruginosa. In words: Antibacterial activity against wild-type Pseudomonas aeruginosa PAO1 assessed as growth inhibition after 72 hrs by broth microdilution method. Particulars: PAO1, 72 h. Background: Dilution methods test growth across graded concentrations, often in twofold steps.
In another test the test system is Staphylococcus aureus. The experiment in a line: Antibacterial activity against Staphylococcus aureus SH1000 assessed as growth inhibition after 72 hrs by broth microdilution method. Particulars: SH1000, 72 h.
The subject of the next test is Escherichia coli. In words: Antibacterial activity against Escherichia coli MC4100 assessed as growth inhibition after 72 hrs by broth microdilution method. The settings on record: MC4100, 72 h.
Another test relates to Enterococcus faecalis. In words: Antibacterial activity against Enterococcus faecalis OG1RF assessed as growth inhibition after 72 hrs by broth microdilution method.

As to `CCCCCCCCCCCCCC[N+](C)(C)CC[N+](C)(C)CCCCCCCCCCCC`, the MIC with Pseudomonas aeruginosa stood at 8 µM; with Staphylococcus aureus, 1 µM; with Escherichia coli, 2 µM; in the test on Enterococcus faecalis, 2 µM.
For `CCCCCCCCCCCCCC[N+](C)(C)CC[N+](C)(C)CCCCCCCC`, the minimal inhibitory concentration (MIC) came out at 4 µM in the test with Pseudomonas aeruginosa, 1 µM in the test on Staphylococcus aureus, 2 µM in the test on Escherichia coli and 2 µM in the test on Enterococcus faecalis.
On to `CCCCCCCCCCCCCCCC[N+](C)(C)CC[N+](C)(C)CCCCCCCCCCCC`, for which the minimum inhibitory concentration (MIC) in the test with Pseudomonas aeruginosa came to 32 µM; in the test with Staphylococcus aureus it was 8 µM; in the test with Escherichia coli it was 8 µM; in the test with Enterococcus faecalis it was 4 µM.
For `CCCCCCCCCCCCCC[N+](C)(C)CC[N+](C)(C)CCCCCCCCCC`, the minimal inhibitory concentration (MIC) in the test on Pseudomonas aeruginosa worked out at 4 µM; with Staphylococcus aureus it was 4 µM; in the test on Escherichia coli, 2 µM; with Enterococcus faecalis, 1 µM.
Turning to `CCCCCCCC[N+](C)(C)CCN(C)C`, the MIC in the test on Pseudomonas aeruginosa, in the test with Staphylococcus aureus, in the test on Escherichia coli and with Enterococcus faecalis was more than 1000 µM throughout.
For the molecule `CCCCCCCCCCCCCCCCCC[N+](C)(C)CC[N+](C)(C)CCCCCCCCCCCCCC`, the MIC is 63 µM with Pseudomonas aeruginosa, 8 µM in the test on Staphylococcus aureus, 16 µM in the test with Escherichia coli and 16 µM in the test with Enterococcus faecalis.
For `CCCCCCCCCCCCCCCCCC[N+](C)(C)CC[N+](C)(C)CCCCCCCC`, the minimal inhibitory concentration (MIC) in the test with Pseudomonas aeruginosa came out at 32 µM; in the test with Staphylococcus aureus, 2 µM; with Escherichia coli, 8 µM; in the test on Enterococcus faecalis it was 2 µM.
`CCCCCCCCCCCCCCCCCC[N+](C)(C)CC[N+](C)(C)CCCCCCCCCCCCCCCCCC`: the minimal inhibitory concentration (MIC) in the test with Pseudomonas aeruginosa amounted to 500 µM; in the test with Staphylococcus aureus, 32 µM; with Escherichia coli, 250 µM; with Enterococcus faecalis, 63 µM.
As for `CCCCCCCCCCCC[N+](C)(C)CC[N+](C)(C)CCCCCCCCCCCC`, the minimum inhibitory concentration (MIC) in the test on Pseudomonas aeruginosa is 4 µM; in the test on Staphylococcus aureus, 1 µM; with Escherichia coli it was 2 µM; in the test on Enterococcus faecalis, 1 µM.
Consider `CCCCCCCCCCCCCCCCCC[N+](C)(C)CC[N+](C)(C)CCCCCCCCCCCCCCCC`, for which the MIC in the test on Pseudomonas aeruginosa is 63 µM; in the test with Staphylococcus aureus it was 16 µM; in the test on Escherichia coli, 32 µM; with Enterococcus faecalis it was 32 µM.
Take `CCCCCCCCCCCCCCCC[N+](C)(C)CC[N+](C)(C)CCCCCCCCCCCCCCCC`: the minimal inhibitory concentration (MIC) in the test with Pseudomonas aeruginosa turned out to be 63 µM; in the test on Staphylococcus aureus it was 8 µM; in the test on Escherichia coli, 32 µM; with Enterococcus faecalis it was 8 µM.
As to `CCCCCCCCCCCCCCCCCC[N+](C)(C)CCN(C)C`, the minimum inhibitory concentration (MIC) with Pseudomonas aeruginosa came out at 63 µM; in the test on Staphylococcus aureus, 2 µM; with Escherichia coli it was 63 µM; in the test with Enterococcus faecalis, 4 µM.
In the case of `CCCCCCCCCCCCCC[N+](C)(C)CCN(C)C`, the MIC amounted to 125 µM with Pseudomonas aeruginosa, 2 µM in the test on Staphylococcus aureus, 16 µM in the test on Escherichia coli and 8 µM in the test on Enterococcus faecalis.
On to `CCCCCCCCCCCCCCCCCCCC[N+](C)(C)CCN(C)C`, for which the minimal inhibitory concentration (MIC) came to 125 µM in the test with Pseudomonas aeruginosa, 4 µM in the test with Staphylococcus aureus, 63 µM in the test with Escherichia coli and 4 µM in the test with Enterococcus faecalis.
For `CCCCCCCCCCCC[N+](C)(C)CCN(C)C`, the MIC in the test with Pseudomonas aeruginosa stood at 250 µM; in the test on Staphylococcus aureus it was 32 µM; in the test with Escherichia coli it was 63 µM; in the test with Enterococcus faecalis, 63 µM.
For the molecule `CCCCCCCCCCCCCCCCCC[N+](C)(C)CC[N+](C)(C)CCCCCCCCCC`, the minimal inhibitory concentration (MIC) with Pseudomonas aeruginosa is 32 µM; in the test on Staphylococcus aureus, 4 µM; in the test with Escherichia coli it was 16 µM; in the test with Enterococcus faecalis, 2 µM.
For `CCCCCCCCCCCCCC[N+](C)(C)CC[N+](C)(C)CCCCCCCCCCCCCC`, in that order: 32 µM, 4 µM, 4 µM and 2 µM.
Taken in the same sequence, the figures for `CCCCCCCCCC[N+](C)(C)CC[N+](C)(C)CCCCCCCCCC` were 8 µM, 2 µM, 16 µM and 8 µM.
As for `CCCCCCCCCCCCC[N+](C)(C)CC[N+](C)(C)CCCCCCCCCC`, the minimum inhibitory concentration (MIC) in the test on Pseudomonas aeruginosa was 2 µM; with Staphylococcus aureus, 1 µM; in the test on Escherichia coli, 2 µM; with Enterococcus faecalis, 1 µM.
On to `CCCCCCCCCCCCCCCC[N+](C)(C)CC[N+](C)(C)CCCCCCCCCC`, for which the minimum inhibitory concentration (MIC) came to 32 µM with Pseudomonas aeruginosa, 4 µM in the test with Staphylococcus aureus, 8 µM in the test with Escherichia coli and 4 µM with Enterococcus faecalis.
For the molecule `CCCCCCCCCCCC[N+](C)(C)CC[N+](C)(C)CCCCCCCCCC`, the minimal inhibitory concentration (MIC) with Pseudomonas aeruginosa is 2 µM; in the test on Staphylococcus aureus, 1 µM; in the test with Escherichia coli, 2 µM; in the test on Enterococcus faecalis, 2 µM.
As to `CCCCCCCCCCCCCCCC[N+](C)(C)CCN(C)C`, the MIC stood at 16 µM with Pseudomonas aeruginosa, 1 µM in the test on Staphylococcus aureus, 16 µM in the test on Escherichia coli and 16 µM in the test on Enterococcus faecalis.
As for `CCCCCCCCCCCCCCCCCCCC[N+](C)(C)CC[N+](C)(C)CCCCCCCCCCCCCCCC`, the MIC in the test on Pseudomonas aeruginosa is 63 µM; in the test on Staphylococcus aureus, 16 µM; in the test with Escherichia coli, 63 µM; in the test on Enterococcus faecalis, 32 µM.
With `CCCCCCCCCC[N+](C)(C)CCN(C)C`, the minimal inhibitory concentration (MIC) with Pseudomonas aeruginosa stood at 250 µM; in the test on Staphylococcus aureus, 63 µM; in the test with Escherichia coli it was 250 µM; in the test with Enterococcus faecalis, 250 µM.
In the case of `CCCCCCCCCCCCCCCCCCCC[N+](C)(C)CC[N+](C)(C)CCCCCCCC`, the minimal inhibitory concentration (MIC) stood at 32 µM with Pseudomonas aeruginosa, 4 µM in the test with Staphylococcus aureus, 16 µM with Escherichia coli and 4 µM with Enterococcus faecalis.
For `CCCCCCCCCCCCCCCCCC[N+](C)(C)CC[N+](C)(C)CCCCCCCCCCCC`, the MIC in the test with Pseudomonas aeruginosa stood at 32 µM; in the test on Staphylococcus aureus it was 4 µM; with Escherichia coli it was 16 µM; in the test on Enterococcus faecalis it was 4 µM.
Turning to `CCCCCCCCCCCCCCCCCCCC[N+](C)(C)CC[N+](C)(C)CCCCCCCCCCCCCC`, the MIC in the test on Pseudomonas aeruginosa was 63 µM; in the test on Staphylococcus aureus it was 8 µM; in the test with Escherichia coli, 16 µM; in the test on Enterococcus faecalis, 16 µM.
In the case of `CCCCCCCCCCCCCCCCCCCC[N+](C)(C)CC[N+](C)(C)CCCCCCCCCC`, the MIC was determined as 16 µM in the test with Pseudomonas aeruginosa, 4 µM in the test with Staphylococcus aureus, 16 µM with Escherichia coli and 16 µM in the test with Enterococcus faecalis.
Regarding `CCCCCCCCCC[N+](C)(C)CC[N+](C)(C)CCCCCCCC`, the MIC in the test on Pseudomonas aeruginosa amounted to 125 µM; with Staphylococcus aureus, 8 µM; with Escherichia coli it was 63 µM; with Enterococcus faecalis, 63 µM.
As for `CCCCCCCCCCCCCCCC[N+](C)(C)CC[N+](C)(C)CCCCCCCCCCCCCC`, the minimum inhibitory concentration (MIC) with Pseudomonas aeruginosa was found to be 63 µM; in the test with Staphylococcus aureus, 8 µM; with Escherichia coli it was 16 µM; in the test with Enterococcus faecalis it was 2 µM.
For the molecule `CCCCCCCCCCCCCCCCCCCC[N+](C)(C)CC[N+](C)(C)CCCCCCCCCCCC`, the minimum inhibitory concentration (MIC) was 63 µM in the test on Pseudomonas aeruginosa, 8 µM with Staphylococcus aureus, 32 µM in the test on Escherichia coli and 4 µM in the test with Enterococcus faecalis.
For `CCCCCCCCCCCCCCCC[N+](C)(C)CC[N+](C)(C)CCCCCCCC`, in that order: 4 µM, 2 µM, 2 µM and 2 µM.
In the case of `CCCCCCCCCCCC[N+](C)(C)CC[N+](C)(C)CCCCCCCC`, the MIC in the test on Pseudomonas aeruginosa turned out to be 4 µM; with Staphylococcus aureus it was 1 µM; with Escherichia coli, 4 µM; with Enterococcus faecalis it was 4 µM.
`CCCCCCCCCCC[N+](C)(C)CC[N+](C)(C)CCCCCCCCCC`: the MIC with Pseudomonas aeruginosa amounted to 4 µM; in the test with Staphylococcus aureus, 1 µM; with Escherichia coli, 4 µM; with Enterococcus faecalis, 4 µM.
With `CCCCCCCC[N+](C)(C)CC[N+](C)(C)CCCCCCCC`, the minimal inhibitory concentration (MIC) in the test on Pseudomonas aeruginosa is 500 µM; with Staphylococcus aureus, 32 µM; with Escherichia coli it was 250 µM; in the test with Enterococcus faecalis, 500 µM.

Broadly, the MIC is the lowest concentration found to suppress growth.
